Reference: patent US20250122219A1 (priority 2023, published 2025)

How the values were obtained:
[1] = test system: HIV-1 (IIIB); assay: Antiviral assay in MT-4 cells; type: cell-based; conditions: Human immunodeficiency virus 1, MT4, 120 h; HIV-1 IIIB in MT-4 cells, 5 days incubation, Cell Titer Glo; read-out: MT4 EC50
Outline: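 HIV-1 IIIB-infected MT-4 cells (fresh 1:250 virus stock dilution; mock-infected controls) incubated 5 days at 37 °C with serially diluted compounds in RPMI/10% FBS; 5 μM AZT as positive control. Cell viability read by CellTiter-Glo luminescence as measure of protection from viral replication.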

[2] = Cytotoxicity assay in MT-4 cells; type: cell-based; conditions: human; uninfected MT-4 cells, 5 days incubation, Cell Titer Glo; read-out: MT4 CC50
Outline: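 Uninfected MT-4 cells exposed to serially diluted compounds in RPMI with 10% FBS for 5 days at 37 °C. Viability by Cell Titer Glo chemiluminescence. Puromycin […] as baseline cytotoxicity control.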

Row | EC50 [1] [nM] | SMILES | CC50 at 5 days [2] [nM]
1 | 7.16 | CCCCCCCCCCCCCCCCCCOC(=O)Oc1c2n(cc(C(=O)NCc3ccc(F)cc3F)c1=O)[C@@H]1CN(C2=O)[C@@H](C)CC[C@]12CC(OC)=NO2 [Example 147, (3′S,5S,7′R)-10′-((2,4-difluorobenzyl)carbamoyl)-3-methoxy-3′-methyl-1′,11′-dioxo-1′,4′,5′,11′-tetrahydro-3′H,4H,7′H-spiro[isoxazole-5,6′-[2,7]methanopyrido[1,2-a][1,4]diazonin]-12′-yl octadecyl carbonate] | ≥ 50000
2 | 1.85 | CC1=NO[C@@]2(CC[C@H](C)N3C[C@H]2n2cc(C(=O)NCc4ccc(F)cc4F)c(=O)c(OC(=O)OCC(C)C)c2C3=O)C1 [Example 148, (3′S,5S,7′R)-10′-((2,4-difluorobenzyl)carbamoyl)-3,3′-dimethyl-1′,11′-dioxo-1′,4′,5′,11′-tetrahydro-3′H,4H,7′H-spiro[isoxazole-5,6′-[2,7]methanopyrido[1,2-a][1,4]diazonin]-12′-yl isobutyl carbonate] | 16100
3 | 2.17 | COC1=NO[C@@]2(CC[C@H](C)N3C[C@H]2n2cc(C(=O)NCc4ccc(F)cc4F)c(=O)c(OC(=O)OCC(C)C)c2C3=O)C1 [Example 149, (3′S,5S,7′R)-10′-((2,4-difluorobenzyl)carbamoyl)-3-methoxy-3′-methyl-1′,11′-dioxo-1′,4′,5′,11′-tetrahydro-3′H,4H,7′H-spiro[isoxazole-5,6′-[2,7]methanopyrido[1,2-a][1,4]diazonin]-12′-yl isobutyl carbonate] | 15900
4 | 0.153 | CC1=NO[C@@]2(CC[C@H](C)N3C[C@H]2n2cc(C(=O)NCc4ccc(F)cc4F)c(=O)c(OC(=O)OCCC(C)C)c2C3=O)C1 [Example 150, (3′S,5S,7′R)-10′-((2,4-difluorobenzyl)carbamoyl)-3,3′-dimethyl-1′,11′-dioxo-1′,4′,5′,11′-tetrahydro-3′H,4H,7′H-spiro[isoxazole-5,6′-[2,7]methanopyrido[1,2-a][1,4]diazonin]-12′-yl isopentyl carbonate] | 16000
5 | 0.17 | COC1=NO[C@@]2(CC[C@H](C)N3C[C@H]2n2cc(C(=O)NCc4ccc(F)cc4F)c(=O)c(OC(=O)OCCC(C)C)c2C3=O)C1 [Example 151, (3′S,5S,7′R)-10′-((2,4-difluorobenzyl)carbamoyl)-3-methoxy-3′-methyl-1′,11′-dioxo-1′,4′,5′,11′-tetrahydro-3′H,4H,7′H-spiro[isoxazole-5,6′-[2,7]methanopyrido[1,2-a][1,4]diazonin]-12′-yl isopentyl carbonate] | 18500
6 | 0.573 | CC1=NO[C@@]2(CC[C@H](C)N3C[C@H]2n2cc(C(=O)NCc4ccc(F)cc4F)c(=O)c(OC(=O)OCCCC(C)C)c2C3=O)C1 [Example 152, (3′S,5S,7′R)-10′-((2,4-difluorobenzyl)carbamoyl)-3,3′-dimethyl-1′,11′-dioxo-1′,4′,5′,11′-tetrahydro-3′H,4H,7′H-spiro[isoxazole-5,6′-[2,7]methanopyrido[1,2-a][1,4]diazonin]-12′-yl (4-methylpentyl) carbonate] | 14900
7 | 0.648 | COC1=NO[C@@]2(CC[C@H](C)N3C[C@H]2n2cc(C(=O)NCc4ccc(F)cc4F)c(=O)c(OC(=O)OCCCC(C)C)c2C3=O)C1 [Example 153, (3′S,5S,7′R)-10′-((2,4-difluorobenzyl)carbamoyl)-3-methoxy-3′-methyl-1′,11′-dioxo-1′,4′,5′,11′-tetrahydro-3′H,4H,7′H-spiro[isoxazole-5,6′-[2,7]methanopyrido[1,2-a][1,4]diazonin]-12′-yl (4-methylpentyl) carbonate] | 23600
